# From publication PMC6302903, “Protein and Chemical Determinants of BL-1249 Action and Selectivity for K2P Channels” (ACS Chemical Neuroscience, 2018)
# Columns and labels:
# K2P18.1(TRESK) = system: K2P18.1(TRESK); parameters: method as in PMID 27641472; conditions: cited from earlier work
# K2P4.1(TRAAK) M134F = molecular target: T1, K2P4.1(TRAAK) M134F (Mus musculus, UniProt O88454, M134F); test: TEVC of K2P4.1(TRAAK) mutant M134F; format: cell-based; conditions: Xenopus oocytes, saturation not reached, fit with upper boundary of 15 (I/I0)
# T1 construct: expressed in transfected cells; host or cells: Xenopus laevis oocytes, mRNA injected
# T1 sequence (O88454 whole entry M134F): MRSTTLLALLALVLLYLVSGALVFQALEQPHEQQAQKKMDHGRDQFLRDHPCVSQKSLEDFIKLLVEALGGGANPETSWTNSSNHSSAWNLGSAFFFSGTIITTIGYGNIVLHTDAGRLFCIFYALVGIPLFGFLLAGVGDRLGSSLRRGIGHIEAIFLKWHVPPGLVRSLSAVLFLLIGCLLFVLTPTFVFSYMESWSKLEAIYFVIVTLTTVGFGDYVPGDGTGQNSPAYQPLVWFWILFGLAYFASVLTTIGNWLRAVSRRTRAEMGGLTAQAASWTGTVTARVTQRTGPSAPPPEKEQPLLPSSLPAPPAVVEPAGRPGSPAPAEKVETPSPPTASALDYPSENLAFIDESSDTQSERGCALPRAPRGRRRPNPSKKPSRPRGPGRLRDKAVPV
# From the text: To identify K2P2.1(TREK-1) M2 residues that might participate in the BL-1249 response, we mapped the residues that differ between K2P2.1(TREK-1) and K2P4.1(TRAAK) in the context of the K2P2.1(TREK-1) structure[6] (Figure 5B,C). Two K2P2.1(TREK-1) M2 residues stood out as candidates that could explain the reduction in BL-1249 response when the entire M2 helix was replaced with M2 from K2P4.1(TRAAK). One is at the M2/M4 interface and occurs between Phe172 and Arg297 via a π–cation interaction that would be lost when Phe172 is replaced with the equivalent K2P4.1(TRAAK) residue Met134 (Figure 5C, right inset). […] To assess the importance of these interactions in the context of BL-1249 response, we made the K2P2.1(TREK-1) mutants F172M and F185L and measured their responses to BL-1249 (Figure 5D). […]
# Xenopus laevis oocytes were harvested in accordance with UCSF IACUC protocol AN129690 and digested in calcium-free ND-96 (96 mM NaCl, 2 mM KCl, 3.8 mM MgCl2) immediately following harvest, as previously described.[6],[10] […] Defolliculated stage V–VI oocytes were injected with 0.2–6.0 ng of mRNA in 50 nL, and currents were recorded 24–48 h after injection. mRNA was synthesized from plasmid DNA using mMessage mMachine Kit (T7 promoter, Ambion, Life Technologies) and purified using RNEasy Kit (Qiagen). […]
structure (smiles),measurement,setting,value
"c1ccc(-c2nnn[nH]2)c(Nc2cccc3c2CCCC3)c1 [BL-1249, (5,6,7,8-tetrahydro-naphthalen-1-yl)-[2-(1H-tetrazol-5-yl)-phenyl]-amine]",functional effect on K2P18.1(TRESK),K2P18.1(TRESK),activator
same,EC50,K2P4.1(TRAAK) M134F,58 ± 34 µM
